Results taken from US7792665B2, “Method for designing a compound based on the three dimensional structure of phosphoinositide dependent protein kinase 1 (PDK1)” (Medical Research Council, priority 2002, dated 2010).
Where a chain is given by its changes, count along the chain named. Entries after “also recorded” stand apart in the source; their conditions may differ.

Tests used:
[1] = target: S6K-pHM, phosphopeptide comprising the hydrophobic motif of S6K1; experiment: SPR (BiaCore), against wild type PDK1
[2] = target: S6K-pHM, phosphopeptide comprising the hydrophobic motif of S6K1; experiment: SPR (BiaCore 3000), biotinylated S6K-pHM on SA chip, GST-PDK1 injected at 2-2150 nM, steady state, apparent Kd
[3] = target: S6K-pHM, phosphopeptide comprising the hydrophobic motif of S6K1; experiment: SPR (BiaCore), rounded value
PDK1[K76A] = target: T1, PDK1[K76A] (Homo sapiens, UniProt O15530, K76A); experiment: PDK1 catalytic activity towards T308tide, activation by peptides, PDK1[K76A]; assay type: biochemical; settings: high peptide concentrations
T1 construct: made in house; host or cells: human embryonic kidney 293 cells (pEBG2T vector)
T1 sequence (O15530 1-556 K76A): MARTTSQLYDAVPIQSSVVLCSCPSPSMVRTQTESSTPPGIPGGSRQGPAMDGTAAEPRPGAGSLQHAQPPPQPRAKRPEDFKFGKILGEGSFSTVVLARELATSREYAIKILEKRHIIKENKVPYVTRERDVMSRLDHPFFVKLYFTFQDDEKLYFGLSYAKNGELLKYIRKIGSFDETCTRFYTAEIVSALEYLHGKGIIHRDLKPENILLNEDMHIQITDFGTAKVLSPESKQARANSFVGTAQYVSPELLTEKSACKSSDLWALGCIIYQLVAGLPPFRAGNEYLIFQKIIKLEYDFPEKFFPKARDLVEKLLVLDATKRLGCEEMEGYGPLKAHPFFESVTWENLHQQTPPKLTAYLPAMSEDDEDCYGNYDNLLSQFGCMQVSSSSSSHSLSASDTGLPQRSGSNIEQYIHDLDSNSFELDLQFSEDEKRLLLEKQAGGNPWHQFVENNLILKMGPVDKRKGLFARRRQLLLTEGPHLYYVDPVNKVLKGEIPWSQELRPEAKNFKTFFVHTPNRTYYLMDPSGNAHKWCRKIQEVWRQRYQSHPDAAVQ
Procedure: (§1) C. Activation of the indicated forms of PDK1 by 56K-pHM and S6K-HM. PDK1 activity was measured using the peptide substrate (T308tide) in the presence of the indicated concentrations of 56K-pHM (closed circles) and S6K-HM (open circles) as described in the methods. Assays were performed in triplicate and similar results obtained in 2 separate experiments. The results are the average—SD for a single experiment.
The ability of wild type and mutant PDK1 to phosphorylate the synthetic peptide T308tide ([…] ([Biondi et al., 2000]) (SEQ ID NO:108) was carried out in 30 μl assays containing 100 ng of wild type or mutant PDK1, 50 mM Tris/HCl pH 7.5, 0.1% 13-mercaptoethanol, 10 mM MgCl2, 100 μM [32γ P]ATP (200 cpm/pmol), 0.5 μM microcystin-LR, 1 mM T308tide in the presence or absence of the indicated concentrations of the 56K-pHM peptide ([…](P)YVAPSV) (SEQ ID NO:104) or 56K-HM. peptide ([…]) (SEQ ID NO:105). After incubation for 10 min at 30° C., 25 μl of the resultant mixture was spotted into P81 phosphocellulose paper (2×2 cm) and the papers washed and analysed as described previously for assays of MAP kinase. Control assays were carried out in parallel in which either PDK1, or peptide substrate were omitted; these values were always less than 5% of the activity measured in the presence of these reagents. […]

PDK1[R131A] = target: T2, PDK1[R131A] (Homo sapiens, UniProt O15530, R131A); experiment: PDK1 catalytic activity towards T308tide, activation by peptides, PDK1[R131A]; assay type: biochemical; settings: high peptide concentrations
T2 construct: GST (N); made in house; host or cells: human embryonic kidney 293 cells (pEBG2T vector)
T2 sequence (O15530 1-556 R131A): T1 sequence (O15530 1-556 K76A) with A76K, R131A
Procedure: as §1
The ability of wild type and mutant PDK1 to phosphorylate the synthetic peptide T308tide ([…] ([Biondi et al., 2000]) (SEQ ID NO:108) was carried out in 30 μl assays containing 100 ng of wild type or mutant PDK1, 50 mM Tris/HCl pH 7.5, 0.1% 13-mercaptoethanol, 10 mM MgCl2, 100 μM [32γ P]ATP (200 cpm/pmol), 0.5 μM microcystin-LR, 1 mM T308tide in the presence or absence of the indicated concentrations of the 56K-pHM peptide ([…](P)YVAPSV) (SEQ ID NO:104) or 56K-HM. peptide ([…]) (SEQ ID NO:105). After incubation for 10 min at 30° C., 25 μl of the resultant mixture was spotted into P81 phosphocellulose paper (2×2 cm) and the papers washed and analysed as described previously for assays of MAP kinase. Control assays were carried out in parallel in which either PDK1, or peptide substrate were omitted; these values were always less than 5% of the activity measured in the presence of these reagents. One Unit of PDK1 activity was defined as that amount required to catalyse the phosphorylation of 1 nmol of the T308tide in 1 min.

wild type PDK1 = target: T3, wild type PDK1 (Homo sapiens, UniProt O15530); experiment: Surface plasmon resonance (BiaCore) binding of hydrophobic motif peptides, wild type PDK1; set-up: made in house; host or cells: human embryonic kidney 293 cells (pEBG2T vector); settings: surface plasmon resonance
T3 sequence (O15530 1-556): T1 sequence (O15530 1-556 K76A) with A76K
Procedure: Binding and activation of wild type and mutant forms of PDK1 to a phosphopeptide derived from the hydrophobic motif of S6K1. The binding of the wild type (wt) PDK1 and indicated mutants to a phosphopeptide comprising the hydrophobic motif of S6K1 (S6K-pHM: […]*YVAPSV, where T* indicates phospho-threonine, SEQ ID NO:104) was analysed by surface plasmon resonance as described in the Materials and Methods.
A. The sensor chip SA was coated with 12RUs of the biotinylated S6K-pHM peptide and the binding was analysed following injection of 270 nM wild type PDK1, PDK1 [T148A] and PDK1 [K76A]. […] (data not shown).
B. As in A. except that binding was analysed over a range of PDK1 concentrations (2-2150 nM). The response level at the steady state binding is plotted versus the log of the PDK1 concentration. The estimated Kd was obtained by fitting the data to a sigmoid curve using Kaleidagraph software.
Binding was analysed in a BiaCore 3000 system (BiaCore AB, Stevenage, UK). Biotinylated S6K-pHM (Biotin-C12-[…](P)YVAPSV) (SEQ ID NO:104) or the non-phosphorylated form of this peptide S6K-HM was bound to an streptavidin-coated Sensor chip (SA) (12 response units, RU). 30 μl of wild type or the indicated mutant GST-PDK1 were injected at a flow rate of 30 μl/min, in buffer HBS-P (10 mM HEPES pH 7.4, 0.15M NaCl, 0.005% (by vol) polysorbate-20) supplemented with 1 mM DTT. Specific interactions between 56K-pHM and PDK1 proteins were obtained between the concentration range of 2-2150 nM PDK1. Steady state binding was determined at each concentration. Dissociation of PDK1 from the phospho-peptide was monitored over a 1 min period. Regeneration of the sensor chip surface was performed with 1{tilde over (0)} μl injections of 0.05% SDS. […] (RUmax=435). For all PDK1 construct tested, the off rates for S6Kp-HM were high in comparison to those of PIFtide binding with the time taken for 50% dissociation to occur for 56K-pHM is 30s compared to 1000s for PIFtide.

SAPK2β/p38β2 = SAPK2β/p38β2 (Homo sapiens, UniProt Q15759); experiment: Kinase panel assay, SAPK2β/p38β2; assay type: biochemical; settings: 1 μM inhibitor, 0.1 mM ATP, average of triplicate
CK1 = experiment: Kinase panel assay, CK1; assay type: biochemical; settings: 1 μM inhibitor, 0.1 mM ATP, average of triplicate
PKBΔPH = PKBΔPH (Homo sapiens, UniProt P31749); experiment: biochemical; settings: read-out: percentage of kinase activity compared to control incubations, PKBΔPH
Procedure: (§2) Other protein kinases employed in Table 5, were assayed as described previously.

CHK1 = target: T4, CHK1 (Homo sapiens, UniProt O14757); experiment: Kinase panel assay, CHK1; assay type: biochemical; settings: 1 μM inhibitor, 0.1 mM ATP, average of triplicate
T4 sequence (O14757 1-476): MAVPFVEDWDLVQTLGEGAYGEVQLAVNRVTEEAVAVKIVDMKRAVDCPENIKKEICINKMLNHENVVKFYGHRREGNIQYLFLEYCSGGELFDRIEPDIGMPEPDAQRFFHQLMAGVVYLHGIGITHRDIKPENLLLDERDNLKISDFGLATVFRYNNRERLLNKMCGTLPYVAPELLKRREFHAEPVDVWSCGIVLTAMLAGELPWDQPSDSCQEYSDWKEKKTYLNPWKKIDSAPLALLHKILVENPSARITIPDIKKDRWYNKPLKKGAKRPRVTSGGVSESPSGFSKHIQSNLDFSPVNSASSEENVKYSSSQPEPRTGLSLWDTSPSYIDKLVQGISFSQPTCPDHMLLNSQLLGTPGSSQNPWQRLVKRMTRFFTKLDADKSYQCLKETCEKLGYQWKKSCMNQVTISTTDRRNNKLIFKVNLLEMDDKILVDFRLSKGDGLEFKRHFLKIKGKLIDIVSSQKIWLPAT

JNKSAPK1c = JNKSAPK1c (Homo sapiens, UniProt P45983); experiment: Kinase panel assay, JNKSAPK1c; assay type: biochemical; settings: 1 μM inhibitor, 0.1 mM ATP, average of triplicate
CSK = CSK (Homo sapiens, UniProt P41240); experiment: Kinase panel assay, CSK; assay type: biochemical; settings: 1 μM inhibitor, 0.1 mM ATP, average of triplicate
NEK6 = NEK6 (Homo sapiens, UniProt Q9HC98); experiment: Kinase panel assay, NEK6; assay type: biochemical; settings: 1 μM inhibitor, 0.1 mM ATP, average of triplicate
MKK1 = MKK1 (Homo sapiens, UniProt Q02750); experiment: Kinase panel assay, MKK1; assay type: biochemical; settings: 1 μM inhibitor, 0.1 mM ATP, average of triplicate
MAPKAP-K1a = MAPKAP-K1a (Homo sapiens, UniProt Q15418); experiment: Kinase panel assay, MAPKAP-K1a; assay type: biochemical; settings: 1 μM inhibitor, 0.1 mM ATP, average of triplicate
AMPK = experiment: Kinase panel assay, AMPK; assay type: biochemical; settings: 1 μM inhibitor, 0.1 mM ATP, average of triplicate
Procedure: as §2

PDK1 = target: T5, PDK1 (Homo sapiens, UniProt O15530); experiment: PDK1 protein kinase assay with PDK1tide substrate and [γ-32P]ATP; assay type: biochemical; settings: 1 μM inhibitor, 0.1 mM ATP, average of triplicate
T5 sequence (O15530 1-556): T1 sequence (O15530 1-556 K76A) with A76K
Procedure: as §2
A structure-based sequence alignment of known kinase structures was obtained from, which was used to validate the sequence-based sequence alignment (Table 5).

ROCK-II = ROCK-II (Homo sapiens, UniProt O75116); experiment: Kinase panel assay, ROCK-II; assay type: biochemical; settings: 1 μM inhibitor, 0.1 mM ATP, average of triplicate
SAPK4/p38δ = SAPK4/p38δ (Homo sapiens, UniProt O15264); experiment: Kinase panel assay, SAPK4/p38δ; assay type: biochemical; settings: 1 μM inhibitor, 0.1 mM ATP, average of triplicate
SAPK2α/p38 = SAPK2α/p38 (Homo sapiens, UniProt Q16539); experiment: Kinase panel assay, SAPK2α/p38; assay type: biochemical; settings: 1 μM inhibitor, 0.1 mM ATP, average of triplicate
PRAK = PRAK (Homo sapiens, UniProt Q8IW41); experiment: Kinase panel assay, PRAK; assay type: biochemical; settings: 1 μM inhibitor, 0.1 mM ATP, average of triplicate
SGK1 = SGK1 (Homo sapiens, UniProt O00141); experiment: Kinase panel assay, SGK1; assay type: biochemical; settings: 1 μM inhibitor, 0.1 mM ATP, average of triplicate
MSK1 = MSK1 (Homo sapiens, UniProt O75582); experiment: Kinase panel assay, MSK1; assay type: biochemical; settings: 1 μM inhibitor, 0.1 mM ATP, average of triplicate
CK2 = CK2 (Homo sapiens, UniProt P68400); experiment: Kinase panel assay, CK2; assay type: biochemical; settings: 1 μM inhibitor, 0.1 mM ATP, average of triplicate

Chain of MSK1 (O75582 whole entry): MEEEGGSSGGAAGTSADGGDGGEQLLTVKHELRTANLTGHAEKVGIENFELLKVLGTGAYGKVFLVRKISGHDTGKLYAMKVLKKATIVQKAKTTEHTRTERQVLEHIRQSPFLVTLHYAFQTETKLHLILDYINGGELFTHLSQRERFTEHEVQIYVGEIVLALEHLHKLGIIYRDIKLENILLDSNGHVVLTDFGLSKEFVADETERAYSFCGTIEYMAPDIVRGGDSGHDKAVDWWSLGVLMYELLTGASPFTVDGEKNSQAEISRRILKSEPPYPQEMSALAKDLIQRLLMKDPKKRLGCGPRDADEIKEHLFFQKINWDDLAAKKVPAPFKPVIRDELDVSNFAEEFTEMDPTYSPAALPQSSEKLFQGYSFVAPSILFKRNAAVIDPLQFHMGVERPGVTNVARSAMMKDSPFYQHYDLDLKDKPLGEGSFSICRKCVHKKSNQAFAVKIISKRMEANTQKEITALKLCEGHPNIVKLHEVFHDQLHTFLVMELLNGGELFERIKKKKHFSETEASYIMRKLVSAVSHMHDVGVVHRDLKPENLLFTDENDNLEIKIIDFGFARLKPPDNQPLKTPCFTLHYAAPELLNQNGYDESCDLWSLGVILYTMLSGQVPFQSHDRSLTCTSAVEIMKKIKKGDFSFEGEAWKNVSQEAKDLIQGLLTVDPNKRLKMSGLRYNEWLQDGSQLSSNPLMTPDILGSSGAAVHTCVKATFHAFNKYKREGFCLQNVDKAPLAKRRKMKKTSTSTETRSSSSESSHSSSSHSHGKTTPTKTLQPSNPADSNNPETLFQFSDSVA
Chain of PKBΔPH (P31749 118-480 limits assumed, stated change not applied): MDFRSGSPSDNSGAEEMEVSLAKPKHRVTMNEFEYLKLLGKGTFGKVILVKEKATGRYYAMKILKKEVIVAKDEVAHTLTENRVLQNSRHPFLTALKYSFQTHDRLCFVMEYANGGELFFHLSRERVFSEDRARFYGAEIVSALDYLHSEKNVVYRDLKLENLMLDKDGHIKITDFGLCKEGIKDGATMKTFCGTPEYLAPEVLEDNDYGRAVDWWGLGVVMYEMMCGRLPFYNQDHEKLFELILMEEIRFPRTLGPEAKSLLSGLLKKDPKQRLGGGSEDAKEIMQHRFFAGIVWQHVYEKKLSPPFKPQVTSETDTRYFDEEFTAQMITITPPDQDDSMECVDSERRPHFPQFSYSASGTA
Chain of NEK6 (Q9HC98 whole entry, species assumed): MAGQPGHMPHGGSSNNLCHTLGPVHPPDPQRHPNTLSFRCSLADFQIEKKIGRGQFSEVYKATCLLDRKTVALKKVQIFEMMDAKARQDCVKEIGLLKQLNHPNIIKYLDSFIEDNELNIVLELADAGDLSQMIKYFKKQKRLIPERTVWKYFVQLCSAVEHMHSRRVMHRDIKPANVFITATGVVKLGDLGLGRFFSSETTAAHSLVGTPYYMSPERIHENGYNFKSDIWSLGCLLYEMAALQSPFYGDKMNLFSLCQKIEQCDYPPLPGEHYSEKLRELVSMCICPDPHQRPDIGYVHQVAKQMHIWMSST
Chain of JNKSAPK1c (P45983 whole entry): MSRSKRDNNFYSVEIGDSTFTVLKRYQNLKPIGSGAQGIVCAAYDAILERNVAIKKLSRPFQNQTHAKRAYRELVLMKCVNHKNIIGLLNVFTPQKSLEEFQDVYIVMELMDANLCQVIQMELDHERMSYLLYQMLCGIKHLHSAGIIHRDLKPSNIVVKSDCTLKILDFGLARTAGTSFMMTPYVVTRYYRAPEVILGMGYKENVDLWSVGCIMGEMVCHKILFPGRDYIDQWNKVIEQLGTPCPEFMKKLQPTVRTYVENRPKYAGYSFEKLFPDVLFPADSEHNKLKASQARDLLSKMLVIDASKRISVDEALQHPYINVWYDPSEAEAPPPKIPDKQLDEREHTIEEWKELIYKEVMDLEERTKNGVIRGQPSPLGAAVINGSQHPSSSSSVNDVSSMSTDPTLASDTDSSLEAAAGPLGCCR
Chain of CSK (P41240 whole entry, species assumed): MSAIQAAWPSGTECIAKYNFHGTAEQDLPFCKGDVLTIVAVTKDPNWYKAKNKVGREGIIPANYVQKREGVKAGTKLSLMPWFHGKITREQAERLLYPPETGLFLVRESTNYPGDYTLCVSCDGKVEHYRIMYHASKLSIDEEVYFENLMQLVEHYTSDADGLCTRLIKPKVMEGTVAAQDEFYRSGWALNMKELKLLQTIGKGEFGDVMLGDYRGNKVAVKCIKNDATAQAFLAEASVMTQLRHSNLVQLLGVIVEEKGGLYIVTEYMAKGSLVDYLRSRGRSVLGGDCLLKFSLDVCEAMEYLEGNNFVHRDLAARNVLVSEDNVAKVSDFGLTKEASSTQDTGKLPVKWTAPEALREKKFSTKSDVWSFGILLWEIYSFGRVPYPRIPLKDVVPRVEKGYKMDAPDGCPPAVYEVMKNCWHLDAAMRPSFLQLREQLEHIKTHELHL
Chain of MAPKAP-K1a (Q15418 whole entry, species assumed): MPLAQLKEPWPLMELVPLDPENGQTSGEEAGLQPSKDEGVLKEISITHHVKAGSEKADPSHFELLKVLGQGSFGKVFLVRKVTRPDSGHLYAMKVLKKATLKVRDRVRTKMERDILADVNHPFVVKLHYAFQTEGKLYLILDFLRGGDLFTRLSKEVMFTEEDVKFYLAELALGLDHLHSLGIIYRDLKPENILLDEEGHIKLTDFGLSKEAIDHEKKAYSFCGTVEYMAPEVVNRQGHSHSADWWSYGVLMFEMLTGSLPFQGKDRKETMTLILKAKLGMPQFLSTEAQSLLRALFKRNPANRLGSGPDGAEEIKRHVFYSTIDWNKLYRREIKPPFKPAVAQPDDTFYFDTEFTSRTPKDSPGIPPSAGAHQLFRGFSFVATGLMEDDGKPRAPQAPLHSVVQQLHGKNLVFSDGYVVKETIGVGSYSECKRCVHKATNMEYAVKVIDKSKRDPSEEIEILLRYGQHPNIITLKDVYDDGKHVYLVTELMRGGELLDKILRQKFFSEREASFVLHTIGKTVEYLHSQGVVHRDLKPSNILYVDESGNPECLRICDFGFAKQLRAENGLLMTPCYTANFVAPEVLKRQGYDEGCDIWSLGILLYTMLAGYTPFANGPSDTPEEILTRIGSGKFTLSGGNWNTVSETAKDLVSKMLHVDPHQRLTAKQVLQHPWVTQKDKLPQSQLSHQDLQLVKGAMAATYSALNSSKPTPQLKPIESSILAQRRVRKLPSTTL
Chain of SAPK4/p38δ (O15264 whole entry): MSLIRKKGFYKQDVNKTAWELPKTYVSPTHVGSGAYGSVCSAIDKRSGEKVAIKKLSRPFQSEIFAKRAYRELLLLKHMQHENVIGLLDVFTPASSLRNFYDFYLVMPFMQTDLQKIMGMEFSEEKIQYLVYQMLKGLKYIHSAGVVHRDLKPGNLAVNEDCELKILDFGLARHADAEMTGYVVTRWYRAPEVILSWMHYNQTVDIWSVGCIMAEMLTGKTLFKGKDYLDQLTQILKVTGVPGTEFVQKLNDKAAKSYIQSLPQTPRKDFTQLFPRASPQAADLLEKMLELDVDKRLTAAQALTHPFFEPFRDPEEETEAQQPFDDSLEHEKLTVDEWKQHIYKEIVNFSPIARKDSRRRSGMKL
Chain of MKK1 (Q02750 whole entry, species assumed): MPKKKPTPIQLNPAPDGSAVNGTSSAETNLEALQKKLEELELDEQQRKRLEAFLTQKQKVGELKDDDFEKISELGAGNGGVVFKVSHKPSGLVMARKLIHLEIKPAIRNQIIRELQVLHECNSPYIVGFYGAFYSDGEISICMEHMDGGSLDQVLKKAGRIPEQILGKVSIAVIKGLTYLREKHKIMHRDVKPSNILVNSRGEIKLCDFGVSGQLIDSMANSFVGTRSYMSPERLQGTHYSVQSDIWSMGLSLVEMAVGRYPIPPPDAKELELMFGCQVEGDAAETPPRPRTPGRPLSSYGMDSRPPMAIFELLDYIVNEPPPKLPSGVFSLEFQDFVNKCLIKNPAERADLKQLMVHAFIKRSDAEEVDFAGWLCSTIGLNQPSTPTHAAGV
Chain of PRAK (Q8IW41 whole entry, species assumed): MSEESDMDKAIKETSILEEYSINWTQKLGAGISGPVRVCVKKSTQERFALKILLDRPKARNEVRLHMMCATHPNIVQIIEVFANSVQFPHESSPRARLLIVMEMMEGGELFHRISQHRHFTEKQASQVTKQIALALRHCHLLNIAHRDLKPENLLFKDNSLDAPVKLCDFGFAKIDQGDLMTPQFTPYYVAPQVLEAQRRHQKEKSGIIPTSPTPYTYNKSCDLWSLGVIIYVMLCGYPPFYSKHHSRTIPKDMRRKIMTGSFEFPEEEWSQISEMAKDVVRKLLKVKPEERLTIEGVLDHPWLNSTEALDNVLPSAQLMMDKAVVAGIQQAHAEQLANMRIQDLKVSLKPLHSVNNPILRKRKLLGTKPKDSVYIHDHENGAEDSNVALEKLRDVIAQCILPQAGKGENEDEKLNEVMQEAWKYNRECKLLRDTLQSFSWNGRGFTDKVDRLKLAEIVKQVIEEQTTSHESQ
Chain of SGK1 (O00141 whole entry): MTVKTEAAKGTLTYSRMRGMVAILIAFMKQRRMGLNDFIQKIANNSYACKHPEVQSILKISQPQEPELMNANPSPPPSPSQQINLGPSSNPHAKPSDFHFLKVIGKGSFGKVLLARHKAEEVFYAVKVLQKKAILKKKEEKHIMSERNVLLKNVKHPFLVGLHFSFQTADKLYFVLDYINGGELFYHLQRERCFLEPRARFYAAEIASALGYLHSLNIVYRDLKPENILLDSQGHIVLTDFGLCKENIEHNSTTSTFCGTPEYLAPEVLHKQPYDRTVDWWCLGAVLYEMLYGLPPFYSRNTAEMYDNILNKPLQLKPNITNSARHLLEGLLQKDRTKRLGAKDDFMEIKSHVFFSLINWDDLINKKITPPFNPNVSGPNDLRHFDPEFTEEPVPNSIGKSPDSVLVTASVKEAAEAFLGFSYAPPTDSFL

GST-PDK1[K76A] (from UniProt O15530 1-556) (enzyme)
fold lower affinity than wild type PDK1 [1]: 3 fold
Kd [2]: 1.74 µM
Kd [3]: 1.7 µM

S6K-HM: non-phosphorylated S6K-HM peptide (SESANQVFLGFTYVAPSV)
activation of PDK1[K76A] by non-phosphorylated peptide (PDK1[K76A]): to a similar extent as wild type PDK1
activation of PDK1[R131A] by non-phosphorylated peptide (PDK1[R131A]): to a similar extent as wild type PDK1
binding of wild type PDK1 to peptide (wild type PDK1): No detectable binding; also recorded: not detectably

CN[C@@H]1C[C@H]2O[C@@](C)([C@@H]1OC)n1c3ccccc3c3c4c(c5c6ccccc6n2c5c31)C(=O)NC4 [STO, staurosporine]
percentage of kinase activity compared to control incubations, SAPK2β/p38β2 (SAPK2β/p38β2): 84 ± 11%
percentage of kinase activity compared to control incubations, CK1 (CK1): 95 ± 11%
remaining activity at 1 µM (PKBΔPH): 8 ± 2%
percentage of kinase activity compared to control incubations, CHK1 (CHK1): 3 ± 1%
percentage of kinase activity compared to control incubations, JNKSAPK1c (JNKSAPK1c): 91 ± 3%
percentage of kinase activity compared to control incubations, CSK (CSK): 25 ± 8%
percentage of kinase activity compared to control incubations, NEK6 (NEK6): 109 ± 2%
percentage of kinase activity compared to control incubations, MKK1 (MKK1): 5 ± 8%
percentage of kinase activity compared to control incubations, MAPKAP-K1a (MAPKAP-K1a): 18 ± 10%
percentage of kinase activity compared to control incubations, AMPK (AMPK): 0 ± 0%
percentage of kinase activity compared to control incubations, PDK1 (PDK1): 5 ± 1%
percentage of kinase activity compared to control incubations, ROCK-II (ROCK-II): 9 ± 5%
percentage of kinase activity compared to control incubations, SAPK4/p38δ (SAPK4/p38δ): 40 ± 5%
percentage of kinase activity compared to control incubations, SAPK2α/p38 (SAPK2α/p38): 76 ± 4%
percentage of kinase activity compared to control incubations, PRAK (PRAK): 48 ± 1%
percentage of kinase activity compared to control incubations, SGK1 (SGK1): 51 ± 4%
percentage of kinase activity compared to control incubations, MSK1 (MSK1): 1 ± 0%
percentage of kinase activity compared to control incubations, MSK1 (MSK1; listed as staurosporine): abolished
percentage of kinase activity compared to control incubations, CK2 (CK2): 95 ± 4%
